# In US10668040B2, “Treatment of urea cycle disorders in neonates and infants” (Horizon Therapeutics, LLC, priority 2017, dated 2020):
# Test system: UCD patients
# Assay: Example 3: TEAEs, serious and non-serious adverse events
# Type: in vivo
# Text: Sixteen newborn infants aged 0 to 27 days, and 10 infants and toddlers aged 28 days to 23 months received RAVICTI Oral Liquid administered just prior to breastfeeding or intake of formula or food. The recommended dosing regimen was 3-6 times per day depending on feeding schedule.
# Number of Subjects with Treatment-Emergent Adverse Events (TEAEs), Serious TEAEs, Deaths, and Discontinuations Due to TEAEs
# An adverse event (AE) is any untoward medical occurrence, whether or not the event is considered related to the study drug. A serious AE is any AE that: results in death; is life threatening; requires hospitalization or prolongation of existing hospitalization; results in disability/incapacity; is a congenital anomaly/birth defect; is an important medical event. TEAEs are defined as AEs with an onset date on or after the first dose of study medication until study discontinuation. The Investigator assessed the causal relationship of each TEAE to the study drug as not related, possibly related, or probably related. From the first dose of study treatment through 30 days after the final dose (mean [SD] duration of treatment was 9.13 [6.838] months).
# [1] = Non-serious adverse events, Age 0 to <2 Months
# [2] = Non-serious adverse events, Age 2 Months to <2 Years
# [3] = aged 0 to 2 months, 16 analyzed
# [4] = aged 2 months and up to 2 years, 10 analyzed
smiles,measurement,setting,value
"O=C(CCCc1ccccc1)OCC(COC(=O)CCCc1ccccc1)OC(=O)CCCc1ccccc1 [RAVICTI, benzenebutanoic acid, 1′,1″-(1,2,3-propanetriyl) ester]","Irritability, Occurrences (all)",[1],1
same,"Lethargy, Occurrences (all)",[1],1
same,"Leukocytosis, Occurrences (all)",[1],1
same,"Lower respiratory tract infection, Occurrences (all)",[1],1
same,"Lymphocytosis, Occurrences (all)",[1],1
same,"Medical device site haemorrhage, Occurrences (all)",[1],1
same,"Metabolic acidosis, Occurrences (all)",[1],2
same,"Microcytic anaemia, Occurrences (all)",[1],1
same,"Musculoskeletal and connective tissue Disorders (Torticollis), Occurrences (all)",[1],1
same,"Nail ridging, Occurrences (all)",[1],0
same,"Nasal congestion, Occurrences (all)",[1],2
same,"Nasopharyngitis, Occurrences (all)",[1],7
same,"Nephrolithiasis, Occurrences (all)",[1],1
same,"Neutropenia, Occurrences (all)",[1],1
same,"Ocular hyperaemia, Occurrences (all)",[1],1
same,"Oral candidiasis, Occurrences (all)",[1],2
same,"Oropharyngeal pain, Occurrences (all)",[1],2
same,"Otitis media acute, Occurrences (all)",[1],1
same,"Otitis media, Occurrences (all)",[1],1
same,"Pharyngitis, Occurrences (all)",[1],0
same,"Plagiocephaly, Occurrences (all)",[1],2
same,"Platelet count increased, Occurrences (all)",[1],1
same,"Pneumonia, Occurrences (all)",[1],0
same,"Pneumothorax, Occurrences (all)",[1],1
same,"Post-tussive vomiting, Occurrences (all)",[1],1
same,"Protein deficiency, Occurrences (all)",[1],2
same,"Pyrexia, Occurrences (all)",[1],3
same,"Rash, Occurrences (all)",[1],6
same,"Red man syndrome, Occurrences (all)",[1],1
same,"Respiratory disorder, Occurrences (all)",[1],0
same,"Respiratory syncytial virus infection, Occurrences (all)",[1],1
same,"Rhinorrhoea, Occurrences (all)",[1],0
same,"Rhinovirus infection, Occurrences (all)",[1],1
same,"Seborrhoeic dermatitis, Occurrences (all)",[1],2
same,"Sinusitis, Occurrences (all)",[1],1
same,"Stoma site reaction, Occurrences (all)",[1],1
same,"Tachypnoea, Occurrences (all)",[1],1
same,"Teething, Occurrences (all)",[1],3
same,"Thrombocytopenia, Occurrences (all)",[1],2
same,"Thrombocytosis, Occurrences (all)",[1],2
same,"Tibia fracture, Occurrences (all)",[1],0
same,"Transaminases increased, Occurrences (all)",[1],1
same,"Tremor, Occurrences (all)",[1],1
same,"Upper respiratory tract infection, Occurrences (all)",[1],7
same,"Urinary tract infection, Occurrences (all)",[1],2
same,"Use of accessory respiratory muscles, Occurrences (all)",[1],1
same,"Vascular disorders (Venous thrombosis limb), Occurrences (all)",[1],0
same,"Vesicoureteric reflux, Occurrences (all)",[1],0
same,"Viral infection, Occurrences (all)",[1],1
same,"Vomiting, Occurrences (all)",[1],12
same,"Weight decreased, Occurrences (all)",[1],1
same,"Agitation, Occurrences (all)",[2],0
same,"Alanine aminotransferase increased, Occurrences (all)",[2],0
same,"Amino acid level decreased, Occurrences (all)",[2],1
same,"Amino acid level increased, Occurrences (all)",[2],0
same,"Ammonia increased, Occurrences (all)",[2],1
same,"Anaemia, Occurrences (all)",[2],1
same,"Angular cheilitis, Occurrences (all)",[2],0
same,"Anion gap increased, Occurrences (all)",[2],0
same,"Apnoea, Occurrences (all)",[2],1
same,"Arthropod bite, Occurrences (all)",[2],0
same,"Aspartate aminotransferase increased, Occurrences (all)",[2],0
same,"Blood bicarbonate decreased, Occurrences (all)",[2],0
same,"Blood urea decreased, Occurrences (all)",[2],0
same,"Body height below normal, Occurrences (all)",[2],0
same,"Candida infection, Occurrences (all)",[2],0
same,"Carbon dioxide decreased, Occurrences (all)",[2],1
same,"Cardiac disorders (Tachycardia), Occurrences (all)",[2],0
same,"Catheter site rash, Occurrences (all)",[2],0
same,"Conjunctivitis, Occurrences (all)",[2],1
same,"Constipation, Occurrences (all)",[2],2
same,"Cough, Occurrences (all)",[2],2
same,"Croup infectious, Occurrences (all)",[2],1
same,"Dacryostenosis congenital, Occurrences (all)",[2],1
same,"Decreased appetite, Occurrences (all)",[2],0
same,"Dehydration, Occurrences (all)",[2],0
same,"Dermatitis diaper, Occurrences (all)",[2],1
same,"Device occlusion, Occurrences (all)",[2],0
same,"Diarrhoea, Occurrences (all)",[2],1
same,"Drug withdrawal syndrome, Occurrences (all)",[2],0
same,"Dysphagia, Occurrences (all)",[2],0
same,"Ear and labyrinth disorders (Excessive cerumen production), Occurrences (all)",[2],1
same,"Ear infection, Occurrences (all)",[2],0
same,"Eczema, Occurrences (all)",[2],1
same,"Eye discharge, Occurrences (all)",[2],0
same,"Feeding disorder of infancy or early childhood, Occurrences (all)",[2],0
same,"Flatulence, Occurrences (all)",[2],0
same,"Gamma-glutamyltransferase increased, Occurrences (all)",[2],0
same,"Gastroenteritis, Occurrences (all)",[2],2
same,"Gastrointestinal viral infection, Occurrences (all)",[2],0
same,"Gastrooesophageal reflux disease, Occurrences (all)",[2],0
same,"Gross motor delay, Occurrences (all)",[2],1
same,"Hepatic enzyme increased, Occurrences (all)",[2],0
same,"Hepatobiliary disorders (Hepatic calcification), Occurrences (all)",[2],0
same,"Hyperammonaemia, Occurrences (all)",[2],0
same,"Hypophagia, Occurrences (all)",[2],3
same,"Immune System Disorders (Seasonal allergy), Occurrences (all)",[2],1
same,"Irritability, Occurrences (all)",[2],0
same,"Lethargy, Occurrences (all)",[2],0
same,"Leukocytosis, Occurrences (all)",[2],0
same,"Lower respiratory tract infection, Occurrences (all)",[2],0
same,"Lymphocytosis, Occurrences (all)",[2],0
same,"Medical device site haemorrhage, Occurrences (all)",[2],0
same,"Metabolic acidosis, Occurrences (all)",[2],2
same,"Microcytic anaemia, Occurrences (all)",[2],0
same,"Musculoskeletal and connective tissue Disorders (Torticollis), Occurrences (all)",[2],0
same,"Nail ridging, Occurrences (all)",[2],1
same,"Nasal congestion, Occurrences (all)",[2],1
same,"Nasopharyngitis, Occurrences (all)",[2],2
same,"Nephrolithiasis, Occurrences (all)",[2],0
same,"Neutropenia, Occurrences (all)",[2],0
same,"Ocular hyperaemia, Occurrences (all)",[2],0
same,"Oral candidiasis, Occurrences (all)",[2],0
same,"Oropharyngeal pain, Occurrences (all)",[2],0
same,"Otitis media acute, Occurrences (all)",[2],0
same,"Otitis media, Occurrences (all)",[2],2
same,"Pharyngitis, Occurrences (all)",[2],1
same,"Plagiocephaly, Occurrences (all)",[2],0
same,"Platelet count increased, Occurrences (all)",[2],0
same,"Pneumonia, Occurrences (all)",[2],1
same,"Pneumothorax, Occurrences (all)",[2],0
same,"Post-tussive vomiting, Occurrences (all)",[2],0
same,"Protein deficiency, Occurrences (all)",[2],0
same,"Pyrexia, Occurrences (all)",[2],2
same,"Rash, Occurrences (all)",[2],3
same,"Red man syndrome, Occurrences (all)",[2],0
same,"Respiratory disorder, Occurrences (all)",[2],1
same,"Rhinorrhoea, Occurrences (all)",[2],1
same,"Seborrhoeic dermatitis, Occurrences (all)",[2],1
same,"Sinusitis, Occurrences (all)",[2],2
same,"Stoma site reaction, Occurrences (all)",[2],1
same,"Tachypnoea, Occurrences (all)",[2],0
same,"Teething, Occurrences (all)",[2],1
same,"Thrombocytopenia, Occurrences (all)",[2],0
same,"Thrombocytosis, Occurrences (all)",[2],0
same,"Tibia fracture, Occurrences (all)",[2],1
same,"Transaminases increased, Occurrences (all)",[2],0
same,"Tremor, Occurrences (all)",[2],0
same,"Upper respiratory tract infection, Occurrences (all)",[2],6
same,"Urinary tract infection, Occurrences (all)",[2],1
same,"Use of accessory respiratory muscles, Occurrences (all)",[2],0
same,"Vascular disorders (Venous thrombosis limb), Occurrences (all)",[2],2
same,"Vesicoureteric reflux, Occurrences (all)",[2],1
same,"Viral infection, Occurrences (all)",[2],1
same,"Vomiting, Occurrences (all)",[2],5
same,"Weight decreased, Occurrences (all)",[2],0
same,Subjects with TEAE leading to study discontinuation,[3],one
same,Subjects with fatal outcome TEAE,[3],no fatal outcome TEAEs
same,Subjects with one or more TEAE,[3],16 subjects
same,Subjects with one or more related TEAE,[3],Ten
same,Subjects with one or more serious TEAE,[3],11 subjects
same,Subjects with serious related TEAEs,[3],no subjects
same,Subjects with TEAE leading to study discontinuation,[4],one
same,Subjects with fatal outcome TEAE,[4],One
same,Subjects with one or more TEAE,[4],10 subjects
same,Subjects with one or more related TEAE,[4],Four
same,Subjects with one or more serious TEAE,[4],6 subjects
same,Subjects with serious related TEAEs,[4],no subjects
same,"Respiratory syncytial virus infection, Occurrences (all)",in vivo,0
same,"Respiratory syncytial virus infection, Subjects Affected/Exposed",in vivo,0/10 (0.00%)
same,"Rhinovirus infection, Occurrences (all)",in vivo,0
same,"Rhinovirus infection, Subjects Affected/Exposed",in vivo,0/10 (0.00%)
same,Serious AE Respiratory syncytial virus infection: Occurrences causally related to treatment/all,in vivo,0/0
same,Serious AE Respiratory syncytial virus infection: Subjects Affected/Exposed,in vivo,0/10 (0.00%)
same,Serious AE Rhinovirus infection: Occurrences causally related to treatment/all,in vivo,0/1
same,Serious AE Rhinovirus infection: Subjects Affected/Exposed,in vivo,1/10 (10.00%)
